# Target: T1, α-7 nicotinic acetylcholine receptor channel expressed in HEK 293 cells (Rattus norvegicus, UniProt Q05941)
# T1 construct: expressed in transfected cells
# Experiment: Ca2+-sensitive fluorescence-based FLIPR assay, α7 nicotinic ACh receptor channel function (agonist)
# Type: cell-based
# Conditions: FLIPR α7 activity rating (EC50, nM), Table 1; HEK 293 cells, agonist Ca2+ flux
# Method in brief: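 Potency and efficacy derived from kinetic FLIPR Ca²⁺-flux fluorescence, recorded 3 min after compound addition in Hanks buffer following a 10 s baseline.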
# T1 sequence (Q05941 23-502): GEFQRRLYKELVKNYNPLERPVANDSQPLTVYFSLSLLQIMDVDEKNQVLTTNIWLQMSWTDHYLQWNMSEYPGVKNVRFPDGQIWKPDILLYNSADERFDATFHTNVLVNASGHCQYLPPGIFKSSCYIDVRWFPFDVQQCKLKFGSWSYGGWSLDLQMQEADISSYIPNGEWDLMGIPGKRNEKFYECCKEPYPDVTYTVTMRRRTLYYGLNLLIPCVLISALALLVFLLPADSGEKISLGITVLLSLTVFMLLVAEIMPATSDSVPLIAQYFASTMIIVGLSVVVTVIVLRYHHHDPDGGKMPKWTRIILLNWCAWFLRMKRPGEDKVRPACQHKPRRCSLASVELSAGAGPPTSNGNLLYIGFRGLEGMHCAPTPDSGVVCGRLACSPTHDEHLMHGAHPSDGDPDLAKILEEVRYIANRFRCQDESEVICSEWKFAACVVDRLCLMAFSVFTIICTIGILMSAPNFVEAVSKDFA
row,Structure (SMILES),EC50 [nM]
1,"c1cn2nc(NC3=NC[C@@]4(CN5CCC4CC5)O3)nc2cn1 [Example 270, (R)—N-([1,2,4]Triazol[1,5-a]pyrazin-2-yl)-4H-1′-azaspiro[oxazole-5,3′-bicyclo[2.2.2]octan]-2-amine]",< 100
2,"c1cnc2sc(NC3=NC[C@@]4(CN5CCC4CC5)O3)nc2c1 [Example 271, (R)—N-(Thiazolo[5,4-h]pyridin-2-yl)-4H-1′-azaspiro[oxazole-5,3′-bicyclo[2.2.2]octan]-2-amine]",< 100
3,"c1cnc2sc(NC3=NC[C@@]4(CN5CCC4CC5)O3)nc2n1 [Example 272, (R)—N-(Thiazolo[5,4-b]pyrazin-2-yl)-4H-1′-azaspiro[oxazole-5,3′-bicyclo[2.2.2]octan]-2-amine]",< 100
4,"COc1nc(C)nc2sc(NC3=NC[C@@]4(CN5CCC4CC5)O3)nc12 [Example 273, (R)—N-(7-Methoxy-5-methylthiazolo[5,4-d]pyrimidin-2-yl)-4H-1′-azaspiro[oxazole-5,3′-bicyclo[2.2.2]octan]-2-amine]",1000 to 100000
5,"COc1ncnc2sc(NC3=NC[C@@]4(CN5CCC4CC5)O3)nc12 [Example 274, (R)—N-(7-Methoxythiazolo[5,4-d]pyrimidin-2-yl)-4H-1′-azaspiro[oxazole-5,3′-bicyclo[2.2.2]octan]-2-amine]",1000 to 100000
6,"N#Cc1cnc(NC2=NC[C@@]3(CN4CCC3CC4)O2)s1 [Example 275, (R)-2-(4H-1′-Azaspiro[oxazole-5,3′-bicyclo[2.2.2]octan]-2-ylamino)thiazole-5-carbonitrile]",100 to 1000
7,"c1cc2nc(NC3=NC[C@@]4(CN5CCC4CC5)O3)ccc2cn1 [Example 277, (R)—N-(1,6-Naphthyridin-2-yl)-4H-1′-azaspiro[oxazole-5,3′-bicyclo[2.2.2]octan]-2-amine]",< 100
8,"Clc1cc(Cl)c2cnc(NC3=NC[C@@]4(CN5CCC4CC5)O3)cc2c1 [Example 279, (R)—N-(6,8-Dichloroisoquinolin-3-yl)-4H-1′-azaspiro[oxazole-5,3′-bicyclo[2.2.2]octan]-2-amine]",100 to 1000
9,"Clc1ccc2cnc(NC3=NC[C@@]4(CN5CCC4CC5)O3)cc2c1Cl [Example 281, (R)—N-(5,6-Dichloroisoquinolin-3-yl)-4H-1′-azaspiro[oxazole-5,3′-bicyclo[2.2.2]octan]-2-amine]",< 100
10,"Clc1ccnc(NC2=NC[C@@]3(CN4CCC3CC4)O2)c1Cl [Example 282, (R)—N-(3,4-Dichloropyridin-2-yl)-4H-1′-azaspiro[oxazole-5,3′-bicyclo[2.2.2]octan]-2-amine]",100 to 1000
11,"Clc1cccnc1NC1=NC[C@@]2(CN3CCC2CC3)O1 [Example 283, (R)—N-(3-Chloropyridin-2-yl)-4H-1′-azaspiro[oxazole-5,3′-bicyclo[2.2.2]octan]-2-amine]",100 to 1000
12,"Fc1cc(Cl)cnc1NC1=NC[C@@]2(CN3CCC2CC3)O1 [Example 284, (R)—N-(5-Chloro-3-fluoropyridin-2-yl)-4H-1′-azaspiro[oxazole-5,3′-bicyclo[2.2.2]octan]-2-amine]",< 100
13,"Clc1cccc(NC2=NC[C@@]3(CN4CCC3CC4)O2)n1 [Example 285, (R)—N-(6-Chloropyridin-2-yl)-4H-1′-azaspiro[oxazole-5,3′-bicyclo[2.2.2]octan]-2-amine]",100 to 1000
14,"Clc1cc(Cl)nc(NC2=NC[C@@]3(CN4CCC3CC4)O2)c1 [Example 286, (R)—N-(4,6-Dichloropyridin-2-yl)-4H-1′-azaspiro[oxazole-5,3′-bicyclo[2.2.2]octan]-2-amine]",100 to 1000
15,"COc1ncccc1-c1ccnc(NC2=NC[C@@]3(CN4CCC3CC4)O2)c1 [Example 287, (R)—N-(2-methoxy-3,4′-bipyridin-2′-yl)-4H-1′-azaspiro[oxazole-5,3′-bicyclo[2.2.2]octan]-2-amine]",100 to 1000
16,"c1ccc2oc(NC3=NC[C@@]4(CN5CCC4CC5)O3)nc2c1 [Example 288, (R)—N-(Benzo[d]oxazol-2-yl)-4H-1′-azaspiro[oxazole-5,3′-bicyclo[2.2.2]octan]-2-amine]",< 100

# Source: patent publication US8309577B2, “Quinuclidine compounds as α-7 nicotinic acetylcholine receptor ligands” (Bristol-Myers Squibb Company, priority 2008, dated 2012)
